{"source": "patent US20220280503A1", "about": "“COMPOSITIONS OF OPIOID ANTAGONISTS, IMPLANT DEVICES, AND TREATMENT METHODS FOR OPIOID USE DISORDER” (Delpor, Inc., priority 2019, published 2022)", "assay": "in vitro release of naltrexone from drug delivery devices (Example 1)", "format": "physicochemical", "conditions": "porous membrane about 5-20 mm^2 diffusible area, approximately 70% porosity; phosphate buffer, 37° C.", "excerpt": "Naltrexone base was compounded with anisic acid at acid:drug ratios of 0:[…] (molar basis), tableted with polyvinylpyrrolidone as a binder and stearic acid as a lubricant (12% and 2% of the final formulation mass, respectively), and loaded into delivery devices equipped with 0.1 micron polyvinylidene fluoride (DURAPORE®) membranes. In a subset of devices, approximately 75% of the available membrane surface area was blocked to measure the influence of surface area upon output rate. All devices were vacuum back-filled with phosphate buffer and transferred to jars containing a volume (˜100 mL) of the same buffer. The sealed jars were then incubated at 37° C., and small aliquots (˜500 μL) of receiving buffer were withdrawn at selected time points to quantify the released drug by high pressure liquid chromatography (HPLC).", "note": "Where a name gives a salt, the structure may show the parent alone.", "data": [{"compound": "O=C1CC[C@@]2(O)[C@H]3Cc4ccc(O)c5c4[C@@]2(CCN3CC2CC2)[C@H]1O5", "note": "[naltrexone HCl]", "values": [{"measurement": "in vitro elution rate of naltrexone from device", "result": "over 50 mg/day"}]}]}
